Tests used:
[1] = Ernst et al.; cited from earlier work
[2] = cited from earlier work
[3] = Body weight in male rats after 7 days of treatment; format: in vivo; settings: 7 consecutive days; for Effect on body weight compared to the control group: 0.2-20 mg/kg; for Average Loss of Body Weight: pre- vs post-treatment
Procedure: (§1) Male rats were given increasing doses (control=0 mg/kg, low=0.2 mg/kg, medium=2 mg/kg and high=20 mg/kg) of clomiphene, trans-clomiphene or cis-clomiphene for 7 consecutive days. Treatment was followed by a 7-day washout period. Serum testosterone levels and body weight were tested pre-treatment and post-treatment. Serum testosterone levels were analyzed by direct radioimmunoassay (RIA).
(§2) There were significant and unexpected decreases in serum testosterone and body weight among all treatment groups. […] There was a significant loss in both body weight and total serum testosterone with clomiphene that was dose-dependent.

Serum testosterone = Serum testosterone in male rats after 7 days of treatment (direct RIA); format: in vivo; settings: 7 consecutive days; for Effect on serum testosterone levels compared to the control group: 0.2-20 mg/kg; for Average Decrease in Serum Testosterone Level (%): pre- vs post-treatment
Procedure: as §1, §2

FSH, LH, testosterone = settings: cited from earlier work
[4] = Long-term low-dose study: mean food consumption in male and female rats; format: in vivo
Procedure: (§3) Twenty-eight weeks of a two-year study of the effects of low dosages of trans-clomiphene (0 mg/kg/day (control), 0.0125 mg/kg/day, 0.025 mg/kg/day and 0.05 mg/kg/day) on mean body weight and mean food consumption in age-matched male and female rats has been completed. For each group, n=60. Losses in body weight and decreases in food consumption in both male and female treatment groups (compared to control groups) have been observed in every treatment group. As the study has progressed, the losses in body weight and decreases in food consumption have become more pronounced. See Table 2 (M=male; F=female; Mean Body weight is in grams; Mean Food consumption is in grams/animal/day; and dosages are of trans-clomiphene in mg/kg/day).

[5] = Long-term low-dose study: mean body weight in male and female rats; format: in vivo
Procedure: as §3

[6] = female rats, 0.0125 mg/kg/day, Week 2
[7] = female rats, 0.0125 mg/kg/day, Week 6
[8] = female rats, 0.0125 mg/kg/day, Week 10
[9] = female rats, 0.0125 mg/kg/day, Week 14
[10] = female rats, 0.0125 mg/kg/day, Week 18
[11] = female rats, 0.0125 mg/kg/day, Week 22
[12] = female rats, 0.0125 mg/kg/day, Week 26
[13] = female rats, 0.0125 mg/kg/day, Week 28
[14] = female rats, 0.025 mg/kg/day, Week 2
[15] = female rats, 0.025 mg/kg/day, Week 6
[16] = female rats, 0.025 mg/kg/day, Week 10
[17] = female rats, 0.025 mg/kg/day, Week 14
[18] = female rats, 0.025 mg/kg/day, Week 18
[19] = female rats, 0.025 mg/kg/day, Week 22
[20] = female rats, 0.025 mg/kg/day, Week 26
[21] = female rats, 0.025 mg/kg/day, Week 28
[22] = female rats, 0.05 mg/kg/day, Week 2
[23] = female rats, 0.05 mg/kg/day, Week 6
[24] = female rats, 0.05 mg/kg/day, Week 10
[25] = female rats, 0.05 mg/kg/day, Week 14
[26] = female rats, 0.05 mg/kg/day, Week 18
[27] = female rats, 0.05 mg/kg/day, Week 22
[28] = female rats, 0.05 mg/kg/day, Week 26
[29] = female rats, 0.05 mg/kg/day, Week 28
[30] = male rats, 0.0125 mg/kg/day, Week 2
[31] = male rats, 0.0125 mg/kg/day, Week 6
[32] = male rats, 0.0125 mg/kg/day, Week 10
[33] = male rats, 0.0125 mg/kg/day, Week 14
[34] = male rats, 0.0125 mg/kg/day, Week 18
[35] = male rats, 0.0125 mg/kg/day, Week 22
[36] = male rats, 0.0125 mg/kg/day, Week 26
[37] = male rats, 0.0125 mg/kg/day, Week 28
[38] = male rats, 0.025 mg/kg/day, Week 2
[39] = male rats, 0.025 mg/kg/day, Week 6
[40] = male rats, 0.025 mg/kg/day, Week 10
[41] = male rats, 0.025 mg/kg/day, Week 14
[42] = male rats, 0.025 mg/kg/day, Week 18
[43] = male rats, 0.025 mg/kg/day, Week 22
[44] = male rats, 0.025 mg/kg/day, Week 26
[45] = male rats, 0.025 mg/kg/day, Week 28
[46] = male rats, 0.05 mg/kg/day, Week 2
[47] = male rats, 0.05 mg/kg/day, Week 6
[48] = male rats, 0.05 mg/kg/day, Week 10
[49] = male rats, 0.05 mg/kg/day, Week 14
[50] = male rats, 0.05 mg/kg/day, Week 18
[51] = male rats, 0.05 mg/kg/day, Week 22
[52] = male rats, 0.05 mg/kg/day, Week 26
[53] = male rats, 0.05 mg/kg/day, Week 28

Compound: CCN(CC)CCOc1ccc(/C(=C(/Cl)c2ccccc2)c2ccccc2)cc1 [Cis-clomiphene, cis-clomiphene]
- estrogenic / antiestrogenic activity [1]: more potent and more estrogenic form
- time for which significant blood level is detectable ([2]; following a single dose of clomiphene citrate): in excess of one month
- in vivo clearance [2]: clears slowly
- Effect on body weight compared to the control group [3]: caused a loss in body weight
- Average Loss of Body Weight ([3]; high=20 mg/kg): 75 g
- Average Loss of Body Weight ([3]; low=0.2 mg/kg): 32 g
- Average Loss of Body Weight ([3]; medium=2 mg/kg): 54 g
- Effect on serum testosterone levels compared to the control group (Serum testosterone): significantly and statistically lowered serum testosterone levels
- Average Decrease in Serum Testosterone Level (%) (Serum testosterone; low=0.2 mg/kg): 68.1%
- Average Decrease in Serum Testosterone Level (%) (Serum testosterone; medium=2 mg/kg): 99.3%

Compound: CCN(CC)CCOc1ccc(C(=C(Cl)c2ccccc2)c2ccccc2)cc1 [Clomiphene, clomiphene]
- Effect on body weight compared to the control group [3]: caused a loss in body weight
- Average Loss of Body Weight ([3]; high=20 mg/kg): 69 g
- Average Loss of Body Weight ([3]; low=0.2 mg/kg): 24 g
- Average Loss of Body Weight ([3]; medium=2 mg/kg): 41 g
- LH, FSH, and testosterone (FSH, LH, testosterone; after 2 months of treatment (Guay et al.)): increase
- free and total testosterone (FSH, LH, testosterone; men after treatment (Tenover et al.)): increases
- FSH, LH (FSH, LH, testosterone; young and old men after treatment (Tenover et al.)): increases
- Effect on serum testosterone levels compared to the control group (Serum testosterone): significantly and statistically lowered serum testosterone levels
- Average Decrease in Serum Testosterone Level (%) (Serum testosterone; high=20 mg/kg): 89.7%
- Average Decrease in Serum Testosterone Level (%) (Serum testosterone; low=0.2 mg/kg): 65.2%
- Average Decrease in Serum Testosterone Level (%) (Serum testosterone; medium=2 mg/kg): 83.5%

Compound: CCN(CC)CCOc1ccc(/C(=C(\Cl)c2ccccc2)c2ccccc2)cc1 [Trans-clomiphene, trans-clomiphene]
- estrogenic / antiestrogenic activity [1]: antiestrogenic
- Mean Food consumption [4, 6]: 17.1 grams/animal/day
- Mean Food consumption [4, 7]: 17.4 grams/animal/day
- Mean Food consumption [4, 8]: 17.5 grams/animal/day
- Mean Food consumption [4, 9]: 20.0 grams/animal/day
- Mean Food consumption [4, 10]: 17.5 grams/animal/day
- Mean Food consumption [4, 11]: 17.8 grams/animal/day
- Mean Food consumption [4, 12]: 16.9 grams/animal/day
- Mean Food consumption [4, 13]: 16.4 grams/animal/day
- Mean Food consumption [4, 14]: 17.3 grams/animal/day
- Mean Food consumption [4, 15]: 16.7 grams/animal/day
- Mean Food consumption [4, 16]: 17.8 grams/animal/day
- Mean Food consumption [4, 17]: 18.2 grams/animal/day
- Mean Food consumption [4, 18]: 16.1 grams/animal/day
- Mean Food consumption [4, 19]: 17.0 grams/animal/day
- Mean Food consumption [4, 20]: 16.3 grams/animal/day
- Mean Food consumption [4, 21]: 15.4 grams/animal/day
- Mean Food consumption [4, 22]: 16.0 grams/animal/day
- Mean Food consumption [4, 23]: 15.8 grams/animal/day
- Mean Food consumption [4, 24]: 17.4 grams/animal/day
- Mean Food consumption [4, 25]: 19.0 grams/animal/day
- Mean Food consumption [4, 26]: 16.4 grams/animal/day
- Mean Food consumption [4, 27]: 17.5 grams/animal/day
- Mean Food consumption [4, 28]: 16.3 grams/animal/day
- Mean Food consumption [4, 29]: 15.3 grams/animal/day
- hypophagic effects ([4]; male and female rats, 0.0125-0.05 mg/kg/day, twenty-eight weeks): observed even at extremely low concentrations
- Mean Food consumption [4, 30]: 23.8 grams/animal/day
- Mean Food consumption [4, 31]: 25.1 grams/animal/day
- Mean Food consumption [4, 32]: 26.6 grams/animal/day
- Mean Food consumption [4, 33]: 26.5 grams/animal/day
- Mean Food consumption [4, 34]: 24.3 grams/animal/day
- Mean Food consumption [4, 35]: 25.1 grams/animal/day
- Mean Food consumption [4, 36]: 23.1 grams/animal/day
- Mean Food consumption [4, 37]: 23.6 grams/animal/day
- Mean Food consumption [4, 38]: 24.3 grams/animal/day
- Mean Food consumption [4, 39]: 23.8 grams/animal/day
- Mean Food consumption [4, 40]: 26.9 grams/animal/day
- Mean Food consumption [4, 41]: 25.4 grams/animal/day
- Mean Food consumption [4, 42]: 23.6 grams/animal/day
- Mean Food consumption [4, 43]: 24.0 grams/animal/day
- Mean Food consumption [4, 44]: 23.4 grams/animal/day
- Mean Food consumption [4, 45]: 22.6 grams/animal/day
- Mean Food consumption [4, 46]: 22.0 grams/animal/day
- Mean Food consumption [4, 47]: 22.5 grams/animal/day
- Mean Food consumption [4, 48]: 23.5 grams/animal/day
- Mean Food consumption [4, 49]: 25.9 grams/animal/day
- Mean Food consumption [4, 50]: 22.6 grams/animal/day
- Mean Food consumption [4, 51]: 23.1 grams/animal/day
- Mean Food consumption [4, 52]: 22.4 grams/animal/day
- Mean Food consumption [4, 53]: 22.0 grams/animal/day
- in vivo clearance [2]: rapidly cleared
- Effect on body weight compared to the control group [3]: caused a loss in body weight
- Average Loss of Body Weight ([3]; high=20 mg/kg): 35 g
- Average Loss of Body Weight ([3]; low=0.2 mg/kg): 34 g
- Average Loss of Body Weight ([3]; medium=2 mg/kg): 40 g
- Mean Body weight [5, 6]: 225.1 grams
- Mean Body weight [5, 7]: 269.0 grams
- Mean Body weight [5, 8]: 280.3 grams
- Mean Body weight [5, 9]: 291.8 grams
- Mean Body weight [5, 10]: 300.8 grams
- Mean Body weight [5, 11]: 309.0 grams
- Mean Body weight [5, 12]: 318.7 grams
- Mean Body weight [5, 13]: 318.4 grams
- Mean Body weight [5, 14]: 220.4 grams
- Mean Body weight [5, 15]: 257.3 grams
- Mean Body weight [5, 16]: 271.8 grams
- Mean Body weight [5, 17]: 281.4 grams
- Mean Body weight [5, 18]: 286.9 grams
- Mean Body weight [5, 19]: 294.9 grams
- Mean Body weight [5, 20]: 305.5 grams
- Mean Body weight [5, 21]: 304.4 grams
- Mean Body weight [5, 22]: 214.4 grams
- Mean Body weight [5, 23]: 245.1 grams
- Mean Body weight [5, 24]: 260.3 grams
- Mean Body weight [5, 25]: 272.3 grams
- Mean Body weight [5, 26]: 278.9 grams
- Mean Body weight [5, 27]: 287.7 grams
- Mean Body weight [5, 28]: 296.9 grams
- Mean Body weight [5, 29]: 298.3 grams
- Mean Body weight [5, 30]: 355.5 grams
- Mean Body weight [5, 31]: 467.0 grams
- Mean Body weight [5, 32]: 519.0 grams
- Mean Body weight [5, 33]: 552.1 grams
- Mean Body weight [5, 34]: 572.5 grams
- Mean Body weight [5, 35]: 597.8 grams
- Mean Body weight [5, 36]: 619.6 grams
- Mean Body weight [5, 37]: 620.2 grams
- Mean Body weight [5, 38]: 347.4 grams
- Mean Body weight [5, 39]: 447.8 grams
- Mean Body weight [5, 40]: 498.0 grams
- Mean Body weight [5, 41]: 527.8 grams
- Mean Body weight [5, 42]: 543.3 grams
- Mean Body weight [5, 43]: 566.3 grams
- Mean Body weight [5, 44]: 590.0 grams
- Mean Body weight [5, 45]: 594.2 grams
- Mean Body weight [5, 46]: 335.2 grams
- Mean Body weight [5, 47]: 414.1 grams
- Mean Body weight [5, 48]: 451.7 grams
- Mean Body weight [5, 49]: 480.5 grams
- Mean Body weight [5, 50]: 496.9 grams
- Mean Body weight [5, 51]: 518.8 grams
- Mean Body weight [5, 52]: 536.8 grams
- Mean Body weight [5, 53]: 542.9 grams
- Effect on serum testosterone levels compared to the control group (Serum testosterone): significantly and statistically lowered serum testosterone levels
- Average Decrease in Serum Testosterone Level (%) (Serum testosterone; high=20 mg/kg): 73%
- Average Decrease in Serum Testosterone Level (%) (Serum testosterone; low=0.2 mg/kg): 71.7%
- Average Decrease in Serum Testosterone Level (%) (Serum testosterone; medium=2 mg/kg): 68.3%

— US20080287549A1, “METHODS AND MATERIALS FOR CONTROLLING RODENT POPULATIONS” (priority 2007, published 2008)
